Results published in patent US12576099B2, “Ribose-modified cap analog and use thereof” (Beijing Youcare Kechuang Pharmaceutical Technology Co., Ltd., priority 2024, dated 2026).

Key:
[1] = test system: HEK293T cells; assay: Translation efficiency of different capped luciferase mRNAs; format: cell-based; conditions: for Relative fluorescence intensity: HEK293T, 0.5 μg mRNA per well, 24 hours, proportional to translation efficiency; for Multiple of m6A (relative fluorescence intensity): relative to m6A
Method in brief: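 HEK293T cells were transfected with 0.5 μg capped luciferase mRNA per well (Lipofectamine MessengerMAX) and cultured 24 h at 37 °C. Lysates were mixed with Dual-Lumi II reagent for 5 min at about 25 °C; luminescence served as the measure of translation efficiency.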

[2] = target: T1, T7 RNA polymerase (Escherichia phage T7, UniProt P00573); assay: In vitro transcription yield of mRNA using cap analogs; format: biochemical; conditions: for Yield per unit template: in vitro transcription, 1 μg DNA template, 37° C., 2 hours
T1 sequence (P00573 whole entry): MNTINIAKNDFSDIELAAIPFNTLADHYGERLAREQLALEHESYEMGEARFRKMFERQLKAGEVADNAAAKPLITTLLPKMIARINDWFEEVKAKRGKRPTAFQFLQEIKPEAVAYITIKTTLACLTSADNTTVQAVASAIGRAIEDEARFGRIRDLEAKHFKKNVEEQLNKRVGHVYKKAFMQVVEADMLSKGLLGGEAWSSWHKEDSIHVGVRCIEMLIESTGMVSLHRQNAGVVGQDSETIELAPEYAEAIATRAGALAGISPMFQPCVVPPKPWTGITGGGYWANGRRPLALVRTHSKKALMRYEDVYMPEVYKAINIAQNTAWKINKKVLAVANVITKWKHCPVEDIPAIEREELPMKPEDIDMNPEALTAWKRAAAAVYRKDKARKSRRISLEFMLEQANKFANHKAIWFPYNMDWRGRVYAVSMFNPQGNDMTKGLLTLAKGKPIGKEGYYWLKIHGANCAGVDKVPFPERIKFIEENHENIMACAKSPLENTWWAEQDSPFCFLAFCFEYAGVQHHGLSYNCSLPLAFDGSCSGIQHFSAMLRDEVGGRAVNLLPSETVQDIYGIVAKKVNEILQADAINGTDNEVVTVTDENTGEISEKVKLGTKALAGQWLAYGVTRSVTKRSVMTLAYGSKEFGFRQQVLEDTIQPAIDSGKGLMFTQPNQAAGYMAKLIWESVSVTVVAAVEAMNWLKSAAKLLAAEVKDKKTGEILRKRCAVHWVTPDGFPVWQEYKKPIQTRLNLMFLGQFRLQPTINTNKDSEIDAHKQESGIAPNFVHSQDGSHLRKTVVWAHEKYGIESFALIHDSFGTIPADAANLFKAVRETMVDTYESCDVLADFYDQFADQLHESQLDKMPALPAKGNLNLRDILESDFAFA
Description: • (1) Capping synthesis using cap analogs
The plasmid was first linearized with plasmid linearizing enzyme, and then the linearized plasmid was purified. • (2) In vitro transcription and synthesis of mRNA
(§1) During the experiment, the volume of materials required for the system was first calculated, and then sample addition was conducted. The system was first added with sterile enzyme-free water, followed by the sequential addition of 10× buffer, NTPs, and cap analogs, mixed well, and gently centrifuged. Nuclease inhibitors, inorganic pyrophosphatase, T7RNA polymerase, and linearized DNA templates were then added thereto. The system was mixed well, gently centrifuged, and incubated at 37° C. After 2 hours of incubation, the system was added with 1 U of DNase I and incubated at 37° C. for another 30 minutes. The mRNA precipitate was then washed with 75% ethanol, and after the ethanol was briefly evaporated to dryness, the mRNA was redissolved in sterile enzyme-free water. • (3) The transcription product was purified, and the in vitro transcription yield of mRNA was recorded. • (4) The obtained mRNA was subjected to an annealing reaction with a probe.

[3] = target: T2, DCP2 enzyme (Schizosaccharomyces pombe, UniProt O13828); assay: Decapping enzyme stability test; format: biochemical; conditions: for Decapping rate (%) of DCP2 enzyme: 50 U mRNA decapping enzyme, 37° C., 45 minutes
T2 construct: purchased New England Biolabs
T2 sequence (O13828 1-243 limits assumed): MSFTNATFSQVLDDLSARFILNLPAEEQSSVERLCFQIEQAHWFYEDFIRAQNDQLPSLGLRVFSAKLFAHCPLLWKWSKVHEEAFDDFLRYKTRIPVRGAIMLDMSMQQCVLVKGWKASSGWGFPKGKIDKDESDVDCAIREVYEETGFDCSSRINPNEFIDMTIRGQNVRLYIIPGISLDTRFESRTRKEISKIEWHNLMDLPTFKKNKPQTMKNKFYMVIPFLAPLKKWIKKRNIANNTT
T2 sequence (Q9P805 1-127 partner): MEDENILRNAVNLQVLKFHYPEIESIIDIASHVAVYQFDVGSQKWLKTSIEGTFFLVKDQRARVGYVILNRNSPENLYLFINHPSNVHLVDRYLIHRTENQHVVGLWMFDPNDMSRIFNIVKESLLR
T2 sequence (Q10108 155-180 partner limits assumed): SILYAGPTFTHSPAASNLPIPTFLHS
Method in brief: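 PAGE-purified RNA ([…]) incubated with 50 U mRNA decapping enzyme in 1×MDE buffer at 37° C. for 45 minutes. Products resolved by PAGE, SYBR Green II stained; decapping rate derived from capped-to-decapped band intensity ratio.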

[4] = target: T1, T7 RNA polymerase; assay: Capping rate of mRNA transcription initiated by cap analogs (LC-MS); format: biochemical; conditions: for Capping rate: LC-MS of mRNA 5′ fragment
Description: as §1
The annealing reaction was performed in a PCR instrument: 95° C. for 5 minutes; 65° C. for 2 minutes; 55° C. for 2 minutes; 40° C. for 2 minutes; 22° C. for 2 minutes. • (5) Magnetic bead pretreatment and probe binding: 100 μL of magnetic beads was placed on a magnetic frame for pretreatment. The magnetic bead solution was added with 120 μL of sample and incubated at room temperature for 30 minutes with slow mixing. • (6) mRNA splicing and obtaining the mRNA 5′ single-strand sequence bound to the probe
The mixture was added with 20 μL of RNase H (5 U/μL) and incubated at 37° C. for 3 hours with mixing every half hour. After incubation, the magnetic beads were washed and then added with 100 μL of 75% methanol heated to 80° C. The mixture was heated to 80° C. on a heating plate, held for 3 minutes, then placed on a magnetic frame to aspirate the supernatant, and dried at room temperature for 45 minutes to a volume of 10 μL using a centrifugal evaporator. The sample was then resuspended in 50 μL of 100 μM EDTA/1% MeOH and ready for LC-MS analysis to determine the capping of RNA in the transcription reaction. Since there is a significant difference in molecular weight between capped and uncapped bases, the capping rate of mRNA transcription initiated by different cap analogs can be determined based on the difference in molecular mass.

Row | SMILES | Relative fluorescence intensity [1] | Multiple of m6A (relative fluorescence intensity) [1] | Yield per unit template [2] [µg] | Increase relative to 5227 (in vitro transcription yield) [2] [%] | Decapping rate (%) of DCP2 enzyme [3] [%] | Decrease relative to N-7113 (decapping rate) [3] [%] | Capping rate [4] [%] | Increase relative to 5227 (capping rate) [4] [%] | also measured
1 | CCN(CC)C(=O)[C@H]1[C@@H](O)[C@H]([n+]2cn(C)c3c(=O)[nH]c(N)nc32)O[C@@H]1COP(=O)(O)OP(=O)(O)OP(=O)(O)OC[C@H]1O[C@@H](n2cnc3c(N)ncnc32)[C@H](OC)[C@@H]1OP(=O)(O)OC[C@H]1O[C@@H](n2cnc3c(=O)[nH]c(N)nc32)[C@H](O)[C@@H]1O [YK-CAP-111] | 2.12 | 5.6 | 173.5 | 29.3 | 11.5 | 32.3 | 98.1 | 36.4 | Relative fluorescence intensity, times that of HN3002 ([1]; relative to HN3002): 1.9 times; Relative fluorescence intensity, times that of N-7113 ([1]; relative to N-7113): 2.1 times; Relative fluorescence intensity (translation efficiency), times that of YK-CAP-101 ([1]; relative to YK-CAP-101): 9.6 times; Relative fluorescence intensity, times that of YK-CAP-102 ([1]; relative to YK-CAP-102): 6.2 times; Relative fluorescence intensity, times that of YK-CAP-103 ([1]; relative to YK-CAP-103): 2.8 times; Relative fluorescence intensity, times that of YK-CAP-104 ([1]; relative to YK-CAP-104): 2.6 times; Relative fluorescence intensity, times that of YK-CAP-105 ([1]; relative to YK-CAP-105): 2.9 times; Relative fluorescence intensity, times that of compound 14 ([1]; relative to compound 14): 1.9 times; Transcription yield, times that of YK-CAP-101 ([2]; relative to YK-CAP-101): 5.3 times; Transcription yield, times that of YK-CAP-102 ([2]; relative to YK-CAP-102): 3.9 times; Transcription yield, times that of YK-CAP-103 ([2]; relative to YK-CAP-103): 2.0 times; Transcription yield, times that of YK-CAP-104 ([2]; relative to YK-CAP-104): 2.4 times; Transcription yield, times that of YK-CAP-105 ([2]; relative to YK-CAP-105): 2.1 times; In vitro transcription yield of mRNA higher than that of compound 14 ([2]; relative to compound 14): 40.8%; Capping rate, times that of YK-CAP-101 ([4]; relative to YK-CAP-101): 2.3 times; Capping rate, times that of YK-CAP-102 ([4]; relative to YK-CAP-102): 3.2 times; Capping rate, times that of YK-CAP-103 ([4]; relative to YK-CAP-103): 1.4 times; Capping rate, times that of YK-CAP-104 ([4]; relative to YK-CAP-104): 1.3 times; Capping rate, times that of YK-CAP-105 ([4]; relative to YK-CAP-105): 1.4 times; Capping rate higher than that of compound 14 ([4]; relative to compound 14): 25.3%
2 | COC[C@@H]1[C@H](OP(=O)(O)OC[C@H]2O[C@@H](n3cnc4c(=O)[nH]c(N)nc43)[C@H](O)[C@@H]2O)[C@@H](COP(=O)(O)OP(=O)(O)OP(=O)(O)OC[C@H]2O[C@@H]([n+]3cn(C)c4c(=O)[nH]c(N)nc43)[C@H](O)[C@@H]2O)O[C@H]1n1cnc2c(N)ncnc21 [YK-CAP-113] | 1.63 | 4.3 | 166.1 | 23.8 | 15.3 | 28.5 | 95.2 | 32.4 | 
3 | COC[C@]1(COP(=O)(O)OP(=O)(O)OP(=O)(O)OC[C@H]2O[C@@H](n3cnc4c(N)ncnc43)[C@H](OC)[C@@H]2OP(=O)(O)OC[C@H]2O[C@@H](n3cnc4c(=O)[nH]c(N)nc43)[C@H](O)[C@@H]2O)O[C@@H]([n+]2cn(C)c3c(=O)[nH]c(N)nc32)[C@H](O)[C@@H]1O [YK-CAP-117] | 1.82 | 4.8 | 153.2 | 14.2 | 9.8 | 34.0 | 95.1 | 32.3 | Decapping rate lower than that of HN3002 ([3]; relative to HN3002): 13.5%; Decapping rate lower than that of YK-CAP-101 ([3]; relative to YK-CAP-101): 22.6%; Decapping rate lower than that of YK-CAP-102 ([3]; relative to YK-CAP-102): 31.4%; Decapping rate lower than that of YK-CAP-103 ([3]; relative to YK-CAP-103): 26.7%; Decapping rate lower than that of YK-CAP-104 ([3]; relative to YK-CAP-104): 36.3%; Decapping rate lower than that of YK-CAP-105 ([3]; relative to YK-CAP-105): 24.1%; Decapping rate lower than that of compound 14 ([3]; relative to compound 14): 17.0%; Decapping rate lower than that of m6A ([3]; relative to m6A): 24.0%
4 | CO[C@@H]1[C@H](OP(=O)(O)OC[C@H]2O[C@@H](n3cnc4c(=O)[nH]c(N)nc43)[C@H](O)[C@@H]2O)[C@@H](COP(=O)(O)OP(=O)(O)OP(=O)(O)OC[C@@]2(CF)O[C@@H]([n+]3cn(C)c4c(=O)[nH]c(N)nc43)[C@H](O)[C@@H]2O)O[C@H]1n1cnc2c(N)ncnc21 [YK-CAP-118] | 1.65 | 4.3 | 172.2 | 28.3 | 11.9 | 31.9 | 97.2 | 35.2 | 
5 | CO[C@@H]1[C@H](OP(=O)(O)OC[C@H]2O[C@@H](n3cnc4c(=O)[nH]c(N)nc43)[C@H](O)[C@@H]2O)[C@@H](COP(=O)(O)OP(=O)(O)OP(=O)(O)OC[C@@]2(C(F)F)O[C@@H]([n+]3cn(C)c4c(=O)[nH]c(N)nc43)[C@H](O)[C@@H]2O)O[C@H]1n1cnc2c(N)ncnc21 [YK-CAP-119] | 1.45 | 3.8 | 154.2 | 14.9 | 11.4 | 32.4 | 96.3 | 33.9 | 
6 | CO[C@@H]1[C@H](OP(=O)(O)OC[C@H]2O[C@@H](n3cnc4c(=O)[nH]c(N)nc43)[C@H](O)[C@@H]2O)[C@@H](COP(=O)(O)OP(=O)(O)OP(=O)(O)OC[C@@]2(OC)O[C@@H]([n+]3cn(C)c4c(=O)[nH]c(N)nc43)[C@H](O)[C@@H]2O)O[C@H]1n1cnc2c(N)ncnc21 [compound 5227, reference compound] | 0.82 | 2.2 | 134.2 | 0 | 23.2 | 20.6 | 71.9 | 0 | 
